Measurements as given in article PMC12602503, “AaeAP2a, a scorpion-derived antimicrobial peptide, combats carbapenem-resistant Acinetobacter baumannii via membrane disruption and triggered metabolic collapse” (Frontiers in Microbiology, 2025).
In brackets after ≈: the same amount, converted by molar mass. Entries after “also recorded” stand apart in the source; their conditions may differ. Where two headings read alike, the source gives them in different places. No end group written: not given here.

What was measured:
[1] = test system: A. baumannii ATCC 19606; assay: microbe, parasite or virus in culture; format: cell-based, Acinetobacter baumannii; conditions: for Interpretation: CLSI interpretation of MIC; for MIC: CLSI M100-ED34, MHB, triplicate; as to Interpretation: key: R, Resistant; I, Intermediate; S, Sensitive
Method: (§1) The inhibitory activity of the antimicrobial peptide was assessed using the broth microdilution method following the CLSI M100-ED34 standard ([Humphries et al., 2021]). A single colony of A. baumannii was isolated and inoculated into Mueller-Hinton Broth (MHB), then incubated overnight at 37 °C with agitation at 180 rpm. The overnight cultures were adjusted to a 0.5 McFarland turbidity standard, after which it was diluted 1:100 in MHB medium. […] A. baumannii ATCC 19606 served as the control strain, and the experiments were conducted in triplicate.

[2] = test system: CRAB 236; assay: microbe, parasite or virus in culture; format: cell-based, Acinetobacter baumannii; conditions: for Interpretation: CLSI interpretation of MIC; as to Interpretation: key: R, Resistant; I, Intermediate; S, Sensitive
Method: as §1

[3] = test system: Escherichia coli biofilms; conditions: 1 × MIC; ref Luo et al., 2024; cited from earlier work
Text: In addition to […] the permeability of antimicrobial agents, bacterial biofilms, which rely on a complex matrix of extracellular polymeric substances, support the evolution of bacterial drug resistance, creating a protective barrier against drug-induced killing ([Verderosa et al., 2019]). AMPs have shown dual potential in meeting biofilm-related chronic infections: they can inhibit the initial stages of biofilm formation and eradicate mature biofilms. In this study, AaeAP2a, at a 4 × MIC, obtained an inhibition rate approaching 80% against biofilms formed by two strains of Acinetobacter ...

[4] = test system: mouse erythrocytes; assay: Hemolytic activity; format: cell-based; conditions: 4% mouse erythrocyte suspension, 37 °C, 1 h, OD 540 nm
Method: (§2) To systematically evaluate the biosafety of the antimicrobial peptide AaeAP2a, we assessed its hemolytic activity and cytotoxicity ([Liu et al., 2020a]; [Zhou F. et al., 2022]). A 4% (v/v) erythrocyte suspension was prepared from freshly collected anticoagulated mouse blood by repeatedly resuspending and washing the cells three times with phosphate-buffered saline (PBS), following the established protocol. […] In this test, 1% (v/v) Triton X-100 was used as the positive control. Three replicates per treatment group were used to study OD at 540 nm using a microplate reader. The cytotoxicity of AaeAP2a on human embryonic kidney 293 T cells was tested using the Cell Counting Kit - 8 (CCK-8). […] The CCK-8 assay was thus performed, with three replicates recorded for each concentration.

[5] = test system: human embryonic kidney 293 T cells; assay: Cytotoxicity, CCK-8; format: cell-based; conditions: 16 × MIC, 24 h
Method: as §2

[6] = target: T1, proteinase K (Parengyodontium album, UniProt P06873); assay: Protease resistance, read out by MIC; format: in vitro ADME; conditions: proteinase K 0–100 μg/mL, 1 h, 37 °C; MIC vs ATCC 19606; triplicate
T1 construct: purchased Beyotime Biotechnology (China)
Method: (§3) We thoroughly examined the effects of storage at room temperature, repeated freeze–thaw cycles, temperature variations, pH levels, salt ions, urea, and protease treatment on the antimicrobial activity of peptide AaeAP2a ([Zhu et al., 2022]). Through 0 to 12 freeze–thaw iterations, AaeAP2a was incubated for 1 h at various temperatures (0, 25, 50, 75, and 100 °C) and pH values (3 to 11). Additionally, the peptide was incubated with four salt ions—NaCl, KCl, CaCl2, and MgCl2—at concentrations of […], as well as with urea at concentrations of […] for 1 h. Furthermore, AaeAP2a was treated with proteinase K or trypsin at concentrations ranging from 0 to 100 μg/mL (i.e., 0, 20, 40, 60, 80, and 100 μg/mL) for 1 h at 37 °C. The changes in its antimicrobial activity were quantitatively assessed using the MIC method. All assays were conducted in triplicate. […] Proteinase K, Trypsin, and Urea were obtained from Beyotime Biotechnology (China), while all other reagents were purchased from Macklin (China).

[7] = test system: trypsin; assay: Protease resistance, read out by MIC; format: in vitro ADME; conditions: trypsin concentrations exceeding 40 μg/mL, 1 h, 37 °C; MIC vs ATCC 19606; triplicate
Method: as §3

[8] = test system: horse erythrocytes; conditions: 64 μg/mL; 2% horse erythrocyte suspension; ref Du et al.; cited from earlier work
Text: Safety and stability are essential prerequisites for the clinical application of pharmaceutical agents.

[9] = CRAB 236, broth microdilution, CLSI M100-ED34, MHB, triplicate
[10] = Acinetobacter baumannii, ATCC19606, broth microdilution, read-out: MIC

T1 sequence (P06873 106-384): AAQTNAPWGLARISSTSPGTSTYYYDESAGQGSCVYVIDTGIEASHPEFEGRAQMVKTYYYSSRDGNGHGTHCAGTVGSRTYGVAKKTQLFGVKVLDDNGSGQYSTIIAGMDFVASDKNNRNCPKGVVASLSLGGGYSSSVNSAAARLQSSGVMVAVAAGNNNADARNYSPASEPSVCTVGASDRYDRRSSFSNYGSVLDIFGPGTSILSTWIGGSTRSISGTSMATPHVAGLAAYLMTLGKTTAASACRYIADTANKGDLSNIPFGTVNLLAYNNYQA

Compound | Interpretation [1] | MIC ([1]; broth microdilution) | Interpretation ([2]; CRAB 236) | MIC [2, 9] | Eradication efficiency against Escherichia coli biofilms [3] | Hemolysis ([4]; 16 × MIC) | Hemolysis ([4]; 64 × MIC (200 μg/mL)) | Cell viability [5] | Resistance to proteinase K [6] | Activity after trypsin treatment [7] | Hemolysis [8] | MIC [1, 10] | MIC ([2]; Acinetobacter baumannii)
Colistin | S | 2 µg/mL | S | 0.5 µg/mL | 35% | – | – | – | – | – | – | – | –
FLFKLIPKAIKGLVKAIRK [AaeAP2a] | – | 3.125 µg/mL | – | 6.25 µg/mL | – | < 5% | < 5% | > 90% | substantial resistance | markedly reduced; also recorded: diminished | complete lysis | – | –
C[C@@H](O)[C@H]1C(=O)N2C(C(=O)O)=C(S[C@@H]3CN[C@H](C(=O)N(C)C)C3)[C@H](C)[C@H]12 [Meropenem] | S | – | R | – | – | – | – | – | – | – | – | 2 µg/mL (≈ 5.22 µM) | 16 µg/mL (≈ 41.7 µM)
CNC(C)C1CCC(N)C(OC2C(N)CC(N)C(OC3OCC(C)(O)C(NC)C3O)C2O)O1 (centres unmarked) [Gentamicin] | S | – | R | – | – | – | – | – | – | – | – | 1 µg/mL (≈ 2.09 µM) | > 32 µg/mL
CN(C)[C@@H]1C(O)=C(C(N)=O)C(=O)[C@@]2(O)C(O)=C3C(=O)c4c(O)cccc4[C@@](C)(O)[C@H]3C[C@@H]12 [Tetracycline] | S | – | R | – | – | – | – | – | – | – | – | 2 µg/mL (≈ 4.5 µM) | 64 µg/mL (≈ 144 µM)
CO/N=C(\C(=O)N[C@@H]1C(=O)N2C(C(=O)O)=C(CSc3nc(=O)c(=O)[nH]n3C)CS[C@H]12)c1csc(N)n1 [Ceftriaxone] | I | – | I | – | – | – | – | – | – | – | – | 16 µg/mL (≈ 28.9 µM) | 32 µg/mL (≈ 57.7 µM)
